# Target: T1, hNK2 receptor (Homo sapiens, UniProt P21452)
# T1 construct: host or cells: CHO cells
# T1 sequence (P21452 1-398): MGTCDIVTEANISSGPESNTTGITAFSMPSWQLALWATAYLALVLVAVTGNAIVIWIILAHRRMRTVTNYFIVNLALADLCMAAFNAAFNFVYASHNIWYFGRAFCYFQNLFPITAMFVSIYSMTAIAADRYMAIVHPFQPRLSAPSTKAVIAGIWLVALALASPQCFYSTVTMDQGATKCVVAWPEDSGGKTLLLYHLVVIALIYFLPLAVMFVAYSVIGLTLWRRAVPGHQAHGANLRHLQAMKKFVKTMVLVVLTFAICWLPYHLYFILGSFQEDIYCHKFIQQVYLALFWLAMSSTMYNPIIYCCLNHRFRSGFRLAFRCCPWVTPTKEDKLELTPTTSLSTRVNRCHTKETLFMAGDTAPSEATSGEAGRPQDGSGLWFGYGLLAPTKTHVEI
# Test: Radio-ligand ([125I]-NKA) receptor binding inhibitory activity using membrane fraction of hNK2 receptor-expressing CHO cell
# Conditions: membrane fraction of hNK2 receptor-expressing CHO cells, 25° C., 30 min
# Description: hNK2 receptor-expressing CHO cells (produced by EUROSCREEN) were cultured in HAM-F12 medium containing 400 μg/ml Geneticin, 100 U/mL penicillin, 100 μg/mL streptomycin and 10% inactivated serum. The medium was removed and adhered cells were washed with PBS, and PBS containing 5 mM EDTA was added to detach the cells from the flask. The cells were recovered by centrifugation, suspended in suspending buffer A (15 mM Tris-HCl (pH 7.5), 2 mM MgCl2, 0.3 mM EDTA, 1 mM EGTA), disrupted by POLYTRON homogenizer (manufactured by KINEMATICA) and centrifuged at 800×g for 10 min. The supernatant was recovered and ultracentrifuged at 100000×g for 25 min. The precipitated fraction was suspended in suspending buffer B (7.5 mM Tris-HCl (pH 7.5), 12.5 mM MgCl2, 0.3 mM EDTA, 1 mM, […], 250 mM Sucrose) and cryopreserved (at −80° C.) as a receptor specimen.
# An assay buffer (50 μl, 50 mM Tris-HCl (pH 7.4), 0.02% bovine serum albumin, 2 μg/mL chymostatin, 40 μg/mL bacitracin, 40 μg/mL APMSF, 3 mM MnCl2) was added to a 96 well microassay plate. Thereto was added a 20 μg/mL membrane specimen suspended in the assay buffer (50 μL). An assay buffer (50 μL) containing 2% dimethyl sulfoxide was added to examine the total binding, 4 unlabeled NKA (produced by Peptide Institute, Inc.) solution (50 μL) diluted with an assay buffer containing 2% dimethyl sulfoxide was added to examine non-specific binding, and a test compound diluted with an assay buffer (50 containing 2% dimethyl sulfoxide) was added to examine the binding inhibitory activity of the test compound. Furthermore, […] [^125I]-NKA (produced by Amersham Biosciences) solution (50 μL) was added to each well.
# After reaction at 25° C. for 30 min., the reaction was stopped by rapid filtration on a unifilter plate (GF/C) (manufactured by PerkinElmer) using a cell harvester (manufactured by PerkinElmer) and the cells were washed 5 times with 50 mM Tris-HCl (pH 7.4) buffer containing 0.02% bovine serum albumin (250 μL). The GF/C filter plate was dried and 20 μl, of MicroScinti-O (manufactured by PerkinElmer) was added and the radioactivity was measured in Topcount (manufactured by PerkinElmer). The GF/C filter plate, which had been immersed in 0.3% polyethyleneimine for one day, was used. Specific binding is shown by the value obtained by subtracting non-specific binding from the total binding. The binding inhibitory activity of the test compound is shown by the ratio of the value obtained by subtracting the measured value associated with the addition of the test compound from the total binding, to the value of the specific binding.
row,IC50 [nM],Compound
1,< 10,"O=C(N[C@@H]1C2CCC(CC2)[C@@H]1C(=O)N1CC[C@@H]2[C@H](c3ccccc3)Nc3ccccc3[C@@H]21)c1ccccc1 [Example 178, N-((2R,3S)-3-{[(3aR,4R,9bR)-4-Phenyl-2,3,3a,4,5,9b-hexahydro-1H-pyrrolo[3,2-c]quinolin-1-yl]carbonyl}bicyclo[2.2.2]oct-2-yl)benzamide]"
2,< 1,"COc1ccc(C(=O)N[C@@H]2CCCC[C@@H]2C(=O)N2CC[C@@H]3[C@H](c4ccccc4)Nc4ccccc4[C@@H]32)cc1OC [Example 104, 3,4-Dimethoxy-N-((1R,2S)-2-{[(3aR,4R,9bR)-4-phenyl-2,3,3a,4,5,9b-hexahydro-1H-pyrrolo[3,2-c]quinolin-1-yl]carbonyl}cyclohexyl)benzamide]"
3,< 1,"Cc1cccc(C(=O)N[C@@H]2CCCC[C@@H]2C(=O)N2CC[C@@H]3[C@H](c4ccccc4)Nc4ccccc4[C@@H]32)c1 [Example 98, 3-Methyl-N-((1R,2S)-2-{[(3aR,4R,9bR)-4-phenyl-2,3,3a,4,5,9b-hexahydro-1H-pyrrolo[3,2-c]quinolin-1-yl]carbonyl}cyclohexyl)benzamide]"
4,< 1,"CCC[C@@H]1Nc2ccccc2[C@H]2[C@@H]1CCN2C(=O)[C@H]1CCCC[C@H]1NC(=O)c1ccccc1 [Example 62, N-{(1R,2S)-2-[(3aR,4S,9bR)-(4-Propyl-2,3,3a,4,5,9b-hexahydro-1H-pyrrolo[3,2-c]quinolin-1-yl)carbonyl]cyclohexyl}benzamide]"
5,< 10,"COC[C@@H]1Nc2ccccc2[C@H]2[C@@H]1CCN2C(=O)[C@H]1CCCC[C@H]1NC(=O)c1cccc(C#N)c1 [Example 233, 3-Cyano-N-((1R,2S)-2-{[(3aR,4R,9bR)-4-(methoxymethyl)-2,3,3a,4,5,9b-hexahydro-1H-pyrrolo[3,2-c]quinolin-1-yl]carbonyl}cyclohexyl)benzamide]"
6,< 1,"COC[C@@H]1Nc2ccccc2[C@H]2[C@@H]1CCN2C(=O)[C@H]1CCCC[C@H]1NC(=O)c1ccc(C#N)c(C)c1 [Example 256, 4-Cyano-N-((1R,2S)-2-{[(3aR,4R,9bR)-4-(methoxymethyl)-2,3,3a,4,5,9b-hexahydro-1H-pyrrolo[3,2-c]quinolin-1-yl]carbonyl}cyclohexyl)-3-methylbenzamide]"
7,< 10,"O=C(N[C@@H]1CCCC[C@@H]1C(=O)N1CC[C@@H]2[C@H](c3cncs3)Nc3ccccc3[C@@H]21)c1ccccc1 [Example 78, N-((1R,2S)-2-{[(3aR,4R,9bR)-4-(1,3-Thiazol-5-yl)-2,3,3a,4,5,9b-hexahydro-1H-pyrrolo[3,2-c]quinolin-1-yl]carbonyl}cyclohexyl)benzamide]"
8,< 10,"CCC[C@@H]1Nc2ccccc2[C@H]2[C@@H]1CCN2C(=O)[C@H]1CCCC[C@H]1NC(=O)c1ccccc1 (relative stereo) [Example 27, N-((1R,2S)-2-{[(3aR*,4S*,9bR*)-4-Propyl-2,3,3a,4,5,9b-hexahydro-1H-pyrrolo[3,2-c]quinolin-1-yl]carbonyl}cyclohexyl)benzamide]"
9,< 10,"O=C(Nc1cccnc1)N[C@@H]1CCCC[C@@H]1C(=O)N1CC[C@@H]2[C@H](c3ccccc3)Nc3ccccc3[C@@H]21 [Example 171, N-((1R,2S)-2-{[(3aR,4R,9bR)-4-Phenyl-2,3,3a,4,5,9b-hexahydro-1H-pyrrolo[3,2-c]quinolin-1-yl]carbonyl}cyclohexyl)-N′-pyridin-3-ylurea]"
10,< 10,"O=C(NCCc1ccccc1)N[C@@H]1CCCC[C@@H]1C(=O)N1CC[C@@H]2[C@H](c3ccccc3)Nc3ccccc3[C@@H]21 [Example 146, N-(2-Phenylethyl)-N′-((1R,2S)-2-{[(3aR,4R,9bR)-4-phenyl-2,3,3a,4,5,9b-hexahydro-1H-pyrrolo[3,2-c]quinolin-1-yl]carbonyl}cyclohexyl)urea]"
11,< 1,"O=C(Nc1ccc(F)cc1)N[C@@H]1CCCC[C@@H]1C(=O)N1CC[C@@H]2[C@H](c3ccccc3)Nc3ccccc3[C@@H]21 [Example 139, N-(4-Fluorophenyl)-N′-((1R,2S)-2-{[(3aR,4R,9bR)-4-phenyl-2,3,3a,4,5,9b-hexahydro-1H-pyrrolo[3,2-c]quinolin-1-yl]carbonyl}cyclohexyl)urea]"
12,< 1,"COc1ccc(C(=O)N[C@@H]2CCCC[C@@H]2C(=O)N2CC[C@@H]3[C@H](C4CC4)Nc4ccccc4[C@@H]32)cc1 [Example 180, N-((1R,2S)-2-{[(3aR,4S,9bR)-4-Cyclopropyl-2,3,3a,4,5,9b-hexahydro-1H-pyrrolo[3,2-c]quinolin-1-yl]carbonyl}cyclohexyl)-4-methoxybenzamide]"
13,< 10,"COC[C@@H]1Nc2ccccc2[C@H]2[C@@H]1CCN2C(=O)[C@H]1CCCC[C@H]1NC(=O)c1ccc(S(C)(=O)=O)cc1 [Example 278, N-((1R,2S)-2-{[(3aR,4R,9bR)-4-(Methoxymethyl)-2,3,3a,4,5,9b-hexahydro-1H-pyrrolo[3,2-c]quinolin-1-yl]carbonyl}cyclohexyl)-4-(methylsulfonyl)benzamide]"
14,< 1,"O=C(N[C@@H]1CCCC[C@@H]1C(=O)N1CC[C@@H]2[C@H](c3ccoc3)Nc3ccccc3[C@@H]21)c1ccccc1 (relative stereo) [Example 16, N-((1R,2S)-2-{[(3aR*,4R*,9bR*)-4-(3-Furyl)-2,3,3a,4,5,9b-hexahydro-1H-pyrrolo[3,2-c]quinolin-1-yl]carbonyl}cyclohexyl)benzamide]"
15,< 1,"O=C(N[C@@H]1CCCC[C@@H]1C(=O)N1CC[C@@H]2[C@H](c3ncc[nH]3)Nc3ccccc3[C@@H]21)c1ccccc1F [Example 302, 2-Fluoro-N-((1R,2S)-2-{[(3aR,4R,9bR)-4-(1H-imidazol-2-yl)-2,3,3a,4,5,9b-hexahydro-1H-pyrrolo[3,2-c]quinolin-1-yl]carbonyl}cyclohexyl)benzamide]"
16,< 1,"CCCCNC(=O)N[C@@H]1CCCC[C@@H]1C(=O)N1CC[C@@H]2[C@H](c3ccsc3)Nc3ccccc3[C@@H]21 [Example 188, N-Butyl-N′-((1R,2S)-2-{[(3aR,4R,9bR)-4-(3-thienyl)-2,3,3a,4,5,9b-hexahydro-1H-pyrrolo[3,2-c]quinolin-1-yl]carbonyl}cyclohexyl)urea]"
17,< 1,"Cc1nc2cc(C(=O)N[C@@H]3CCCC[C@@H]3C(=O)N3CC[C@@H]4[C@H](c5ccsc5)Nc5ccccc5[C@@H]43)ccc2[nH]1 [Example 192, 2-Methyl-N-((1R,2S)-2-{[(3aR,4R,9bR)-4-(3-thienyl)-2,3,3a,4,5,9b-hexahydro-1H-pyrrolo[3,2-c]quinolin-1-yl]carbonyl}cyclohexyl)-1H-benzimidazole-5-carboxamide]"
18,< 10,"O=C(N[C@@H]1CCCC[C@@H]1C(=O)N1CC[C@@H]2[C@H](c3ccccc3)Nc3ccccc3[C@@H]21)c1ccccc1 (relative stereo) [Example 1, N-((1R,2S)-2-{[(3aR*,4R*,9bR*)-4-Phenyl-2,3,3a,4,5,9b-hexahydro-1H-pyrrolo[3,2-c]quinolin-1-yl]carbonyl}cyclohexyl)benzamide]"
19,< 10,"CC(C)[C@@H]1Nc2ccccc2[C@H]2[C@@H]1CCN2C(=O)[C@H]1CCCC[C@H]1NC(=O)c1ccccc1 (relative stereo) [Example 28, N-((1R,2S)-2-[(3aR*,4S*, 9bR*)-4-Isopropyl-2,3,3a,4,5,9b-hexahydro-1H-pyrrolo[3,2-c]quinolin-1-yl]carbonyl)cyclohexyl)benzamide]"
20,< 1,"O=C(Nc1ccc2c(c1)OCO2)N[C@@H]1CCCC[C@@H]1C(=O)N1CC[C@@H]2[C@H](c3ccccc3)Nc3ccccc3[C@@H]21 [Example 148, N-1,3-Benzodioxol-5-yl-N′-((1R,2S)-2-{[(3aR,4R,9bR)-4-phenyl-2,3,3a,4,5,9b-hexahydro-1H-pyrrolo[3,2-c]quinolin-1-yl]carbonyl}cyclohexyl)urea]"
